Reference: the NIST ThermoML archive (doi:10.1016/j.tca.2012.03.027)
± gives the expanded uncertainty stated by the source.

Settings: Crystal 2; DTA

| Triple point temperature | SMILES |
| --- | --- |
| 362 ± 4 K | CC12CCC(CC1=O)C2(C)C (configuration not stated) [1,7,7-trimethylbicyclo[2.2.1]-2-heptanone] |
| 367 ± 3 K | CC1(C)[C@@H]2CC[C@@]1(C)C(=O)C2 [d-camphor] |
